The text below walks through data of patent US8309552B2, “Immunomodulating heterocyclic compounds” (Medigene AG, priority 2003, dated 2012).

The term EC50 denotes the concentration needed to bring the measured effect to its halfway point.

Structures are written as SMILES.

For the experiment, the target named is T1, CD80-CD28 interaction (Homo sapiens, UniProt P33681).
T1 sequence (P33681 35-242 limits assumed): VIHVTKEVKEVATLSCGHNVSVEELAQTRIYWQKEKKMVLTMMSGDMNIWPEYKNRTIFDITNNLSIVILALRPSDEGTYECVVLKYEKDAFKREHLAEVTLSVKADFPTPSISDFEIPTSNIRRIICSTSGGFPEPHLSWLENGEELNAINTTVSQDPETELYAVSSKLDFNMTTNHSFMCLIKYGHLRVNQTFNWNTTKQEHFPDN
The experiment in a line: Homogenous Time Resolved Fluorescence (HTRF) assay, cell free. It counts as binding. Conditions: cell free HTRF assay; concentration series 100 μM-1.7 nM; 4 hours at room temperature; read-out: Activity (EC50 in the HTRF assay). In outline: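 Europium and APC labels were linked through antibodies to CD28 and CD80 fusion proteins. Compounds were tested at 100 μM-1.7 nM for 4 h at room temperature in 50 mM Tris-HCl, 150 mM NaCl pH7.8, 0.1% BSA. Emission read at 665 and 615 nm (excitation 340 nm); non-specific signal measured with C215 Fab in place of CD80; EC50 reported in bands.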
(Time-resolved FRET reads energy transfer from a long-lived donor to a nearby acceptor.)
Turning to `O=C(c1ccc(-n2[nH]c3c(nnc4cccc(F)c43)c2=O)cc1)N1CCC(N2CCCCC2)CC1` [Example 402], the EC50 lay within 1000 to 10000 nM. With `CC1(C)CC(NC(=O)c2ccc(-n3[nH]c4c(nnc5cccc(F)c54)c3=O)cc2)CC(C)(C)N1` [Example 403], the EC50 was under 1000 nM. Take `CN(C)CC(C)(C)CNC(=O)c1ccc(-n2[nH]c3c(nnc4cccc(F)c43)c2=O)cc1` [Example 404]: the EC50 was under 1000 nM. As to `NC1CCC(NC(=O)c2ccc(-n3[nH]c4c(nnc5cccc(F)c54)c3=O)cc2)CC1` (stereo not shown) [Example 405], the EC50 was under 1000 nM. The result for `Cc1ccc2nnc3c(=O)n(-c4ccc(C(=O)NCCCN(C)C)cc4)[nH]c3c2c1` [Example 406] reads under 1000 nM. For `Cc1ccc2nnc3c(=O)n(-c4ccc(C(=O)NCCCNC5CCCCC5)cc4)[nH]c3c2c1` [Example 407], the EC50 is under 1000 nM.

Consider `Cc1ccc2nnc3c(=O)n(-c4ccc(C(=O)NC5CC(C)(C)N(C)C(C)(C)C5)cc4)[nH]c3c2c1` [Example 408], for which the EC50 was under 1000 nM. The result for `Cc1ccc2nnc3c(=O)n(-c4ccc(C(=O)NCCCCN5CCCC5)cc4)[nH]c3c2c1` [Example 409] reads under 1000 nM. The result for `NC1CCC(NC(=O)c2ccc(-n3[nH]c4c(nnc5c(F)cccc54)c3=O)cc2)CC1` (stereo not shown) [Example 410] reads under 1000 nM; that for `CN(C)CCCNC(=O)c1ccc(-n2[nH]c3c(nnc4c(Cl)cccc43)c2=O)cc1` [Example 411], under 1000 nM; that for `O=C(NCCCNC1CCCCC1)c1ccc(-n2[nH]c3c(nnc4c(Cl)cccc43)c2=O)cc1` [Example 412], under 1000 nM. `O=C(NCCCCN1CCCC1)c1ccc(-n2[nH]c3c(nnc4c(Cl)cccc43)c2=O)cc1` [Example 413]: the EC50 is under 1000 nM. For the compound `CN(C)CCCNC(=O)c1ccc(-n2[nH]c3c(nnc4c(F)cc(F)cc43)c2=O)cc1` [Example 414], the EC50 is under 1000 nM. Regarding `O=C(NCCCNC1CCCCC1)c1ccc(-n2[nH]c3c(nnc4c(F)cc(F)cc43)c2=O)cc1` [Example 415], the EC50 was under 1000 nM. Regarding `O=C(NCCCCN1CCCC1)c1ccc(-n2[nH]c3c(nnc4c(F)cc(F)cc43)c2=O)cc1` [Example 416], the EC50 was under 1000 nM. In the case of `CNCCCNC(=O)c1ccc(-n2[nH]c3c(nnc4ccc(OC)cc43)c2=O)cc1` [Example 418], the EC50 was under 1000 nM. Take `O=C(NCCCCN1CCSCC1)c1ccc(-n2[nH]c3c(nnc4c(F)cccc43)c2=O)cc1` [Example 419]: the EC50 is under 1000 nM.

Consider `CN(C)CC(C)(C)CNC(=O)c1ccc(-n2[nH]c3c(nnc4c(F)cccc43)c2=O)cc1` [Example 420], for which the EC50 is under 1000 nM. The result for `O=C(c1ccc(-n2[nH]c3c(nnc4c(F)cccc43)c2=O)cc1)N1CCC(N2CCCCC2)CC1` [Example 421] reads 1000 to 10000 nM; that for `O=C(NC1CCC1)c1ccc(-n2[nH]c3c(nnc4c(F)cccc43)c2=O)cc1` [Example 424], under 1000 nM. In the case of `O=C(NC1CCCC1)c1ccc(-n2[nH]c3c(nnc4c(F)cccc43)c2=O)cc1` [Example 425], the EC50 was under 1000 nM. The result for `O=C(NCCF)c1ccc(-n2[nH]c3c(nnc4c(F)cccc43)c2=O)cc1` [Example 426] reads under 1000 nM; that for `CN1C(C)(C)CC(NC(=O)c2ccc(-n3[nH]c4c(nnc5ccc(F)cc54)c3=O)cc2)CC1(C)C` [Example 427], under 1000 nM.

With `CNCCCNC(=O)c1ccc(-n2[nH]c3c(nnc4c(F)ccc(F)c43)c2=O)cc1` [Example 428], the EC50 is under 1000 nM.

As to `O=C(NCCCCN1CCCC1)c1ccc(-n2[nH]c3c(nnc4c(F)ccc(F)c43)c2=O)cc1` [Example 430], the EC50 is under 1000 nM. With `CN1C(C)(C)CC(NC(=O)c2ccc(-n3[nH]c4c(nnc5c(F)ccc(F)c54)c3=O)cc2)CC1(C)C` [Example 431], the EC50 was under 1000 nM.

Regarding `CCN(C)CCCCNC(=O)c1ccc(-n2[nH]c3c(nnc4c(F)cccc43)c2=O)cc1` [Example 432], the EC50 is under 1000 nM. As to `O=C(NCCCCN1CCOCC1)c1ccc(-n2[nH]c3c(nnc4c(F)cccc43)c2=O)cc1` [Example 434], the EC50 is under 1000 nM.
